Results as given in US20230348583A1, “TGFbeta1-BINDING IMMUNOGLOBULINS AND USE THEREOF” (SCHOLAR ROCK, INC., priority 2016, published 2023).

Legend:
rats = conditions: Frazier et al. 2007; cited from earlier work
female F344/NHsd rats = assay: Rat toxicity study; conditions: for Aortic root: Hemorrhage, Minimal / Aortic root: Infiltrate, mixed cell, Minimal / Atrium: Hemorrhage, Minimal / Atrium: Hyperplasia, endothelium, Minimal / Atrium: Infiltrate, mixed cell, Minimal / Atrium: Infiltrate, mixed cell, Slight / Coronary artery: Necrosis with inflammation, Slight / Heart valves: Valvulopathy, Minimal / Heart valves: Valvulopathy, Moderate / Heart valves: Valvulopathy, Slight / Myocardium: Degeneration/necrosis, Minimal / Myocardium: Degeneration/necrosis, Slight / Myocardium: Hemorrhage, Slight / Myocardium: Infiltrate, mixed cell, Slight: animals affected (n=5)
Experimental: Animal body weight was determined at days 1, 3, and 7 of the dosing phase. Animals were sacrificed at day 8 and necropsies performed.

rats and dogs = conditions: Stauber et al. 2014; cited from earlier work
cynomolgus macaques = conditions: cynomolgus monkey, in vivo; cited from earlier work
human cancer patients = conditions: in vivo; cited from earlier work

Compound: O=C(NC1CCOCC1)c1ccc(-c2cc(-c3c[nH]nc3-c3ccccn3)ccn2)cc1 [GW788388]
- Bone toxicity in rats (rats): induced physeal dysplasia

Compound: c1ccc(-c2nn3c(c2-c2ccnc4cc(OCCN5CCOCC5)ccc24)CCC3)nc1 [LY2109761]
- Body weight during the dosing phase (female F344/NHsd rats; 200 mg/kg or 300 mg/kg): decreased body weight
- Animals found dead (female F344/NHsd rats; 200 mg/kg oral gavage once daily, n=5, day 7): Two
- Mortality (female F344/NHsd rats; 300 mg/kg oral gavage once daily, all animals (n=5), days 3, 6, or 7): sacrificed in a moribund condition or found dead
- Heart, Absolute Weight (female F344/NHsd rats; LY2109761 200 mg/kg/day): 112 percentage control mean value
- Heart, Body Weight Ratio (female F344/NHsd rats; LY2109761 200 mg/kg/day): 132 percentage control mean value
- Heart, Brain Weight Ratio (female F344/NHsd rats; LY2109761 200 mg/kg/day): 113 percentage control mean value
- Aortic root: Hemorrhage, Minimal (female F344/NHsd rats; LY2109761 200 mg/kg/day): 1
- Aortic root: Infiltrate, mixed cell, Minimal (female F344/NHsd rats; LY2109761 200 mg/kg/day): 1
- Atrium: Hemorrhage, Minimal (female F344/NHsd rats; LY2109761 200 mg/kg/day): 1
- Atrium: Hyperplasia, endothelium, Minimal (female F344/NHsd rats; LY2109761 200 mg/kg/day): 1
- Atrium: Infiltrate, mixed cell, Minimal (female F344/NHsd rats; LY2109761 200 mg/kg/day): 2
- Atrium: Infiltrate, mixed cell, Slight (female F344/NHsd rats; LY2109761 200 mg/kg/day): 0
- Coronary artery: Necrosis with inflammation, Slight (female F344/NHsd rats; LY2109761 200 mg/kg/day): 0
- Heart valves: Valvulopathy, Minimal (female F344/NHsd rats; LY2109761 200 mg/kg/day): 1
- Heart valves: Valvulopathy, Moderate (female F344/NHsd rats; LY2109761 200 mg/kg/day): 1
- Heart valves: Valvulopathy, Slight (female F344/NHsd rats; LY2109761 200 mg/kg/day): 3
- Myocardium: Degeneration/necrosis, Minimal (female F344/NHsd rats; LY2109761 200 mg/kg/day): 0
- Myocardium: Degeneration/necrosis, Slight (female F344/NHsd rats; LY2109761 200 mg/kg/day): 1
- Myocardium: Hemorrhage, Slight (female F344/NHsd rats; LY2109761 200 mg/kg/day): 1
- Myocardium: Infiltrate, mixed cell, Slight (female F344/NHsd rats; LY2109761 200 mg/kg/day): 0
- Aortic root: Hemorrhage, Minimal (female F344/NHsd rats; LY2109761 300 mg/kg/day): 0
- Aortic root: Infiltrate, mixed cell, Minimal (female F344/NHsd rats; LY2109761 300 mg/kg/day): 0
- Atrium: Hemorrhage, Minimal (female F344/NHsd rats; LY2109761 300 mg/kg/day): 2
- Atrium: Hyperplasia, endothelium, Minimal (female F344/NHsd rats; LY2109761 300 mg/kg/day): 3
- Atrium: Infiltrate, mixed cell, Minimal (female F344/NHsd rats; LY2109761 300 mg/kg/day): 3
- Atrium: Infiltrate, mixed cell, Slight (female F344/NHsd rats; LY2109761 300 mg/kg/day): 1
- Coronary artery: Necrosis with inflammation, Slight (female F344/NHsd rats; LY2109761 300 mg/kg/day): 1
- Heart valves: Valvulopathy, Minimal (female F344/NHsd rats; LY2109761 300 mg/kg/day): 2
- Heart valves: Valvulopathy, Moderate (female F344/NHsd rats; LY2109761 300 mg/kg/day): 0
- Heart valves: Valvulopathy, Slight (female F344/NHsd rats; LY2109761 300 mg/kg/day): 3
- Myocardium: Degeneration/necrosis, Minimal (female F344/NHsd rats; LY2109761 300 mg/kg/day): 1
- Myocardium: Degeneration/necrosis, Slight (female F344/NHsd rats; LY2109761 300 mg/kg/day): 1
- Myocardium: Hemorrhage, Slight (female F344/NHsd rats; LY2109761 300 mg/kg/day): 0
- Myocardium: Infiltrate, mixed cell, Slight (female F344/NHsd rats; LY2109761 300 mg/kg/day): 1
- Animals with abnormally-shaped sternum (female F344/NHsd rats; each of 200 mg/kg and 300 mg/kg groups, n=5): four
- Clear fluid in the thoracic cavity (female F344/NHsd rats; one animal at 300 mg/kg found dead on Day 3, with enlarged thymus (edema)): 2.5 mL
- Heart weight (female F344/NHsd rats; ≥200 mg/kg): Increased heart weights
- Microscopic heart valve findings (female F344/NHsd rats; ≥200 mg/kg): exhibited heart valve findings (i.e., valvulopathy)

Compound: Cc1cccc(-c2nn3c(c2-c2ccnc4ccc(C(N)=O)cc24)CCC3)n1 [LY2157299]
- Organ toxicities on chronic (≥3 months) administration (rats and dogs): caused multiple organ toxicities

Compound: Fresolimumab: a pan TGFβ antibody capable of neutralizing all human isoforms of TGFβ
- Toxicity after multiple administrations (cynomolgus macaques): induce an epithelial hyperplasia of the gingiva, bladder, and of the nasal turbinate epithelium
- Most notable adverse reaction in clinical trials (human cancer patients): induction of cutaneous keratoacanthomas and/or squamous cell carcinomas
